Measured values reported in ChEMBL document CHEMBL1137125, “Rhodanine-3-acetic acid derivatives as inhibitors of fungal protein mannosyl transferase 1 (PMT1)” (Bioorg Med Chem Lett, 2004).
pIC50: −log10 of the molar value.

Tests used:
[1] = target: T1, Dolichyl-phosphate-mannose--protein mannosyltransferase 1 (Candida albicans (strain SC5314 / ATCC MYA-2876) (Yeast), UniProt O74189); experiment: In vitro inhibition of Candida albicans protein mannosyl transferase 1
T1 sequence (O74189 whole entry): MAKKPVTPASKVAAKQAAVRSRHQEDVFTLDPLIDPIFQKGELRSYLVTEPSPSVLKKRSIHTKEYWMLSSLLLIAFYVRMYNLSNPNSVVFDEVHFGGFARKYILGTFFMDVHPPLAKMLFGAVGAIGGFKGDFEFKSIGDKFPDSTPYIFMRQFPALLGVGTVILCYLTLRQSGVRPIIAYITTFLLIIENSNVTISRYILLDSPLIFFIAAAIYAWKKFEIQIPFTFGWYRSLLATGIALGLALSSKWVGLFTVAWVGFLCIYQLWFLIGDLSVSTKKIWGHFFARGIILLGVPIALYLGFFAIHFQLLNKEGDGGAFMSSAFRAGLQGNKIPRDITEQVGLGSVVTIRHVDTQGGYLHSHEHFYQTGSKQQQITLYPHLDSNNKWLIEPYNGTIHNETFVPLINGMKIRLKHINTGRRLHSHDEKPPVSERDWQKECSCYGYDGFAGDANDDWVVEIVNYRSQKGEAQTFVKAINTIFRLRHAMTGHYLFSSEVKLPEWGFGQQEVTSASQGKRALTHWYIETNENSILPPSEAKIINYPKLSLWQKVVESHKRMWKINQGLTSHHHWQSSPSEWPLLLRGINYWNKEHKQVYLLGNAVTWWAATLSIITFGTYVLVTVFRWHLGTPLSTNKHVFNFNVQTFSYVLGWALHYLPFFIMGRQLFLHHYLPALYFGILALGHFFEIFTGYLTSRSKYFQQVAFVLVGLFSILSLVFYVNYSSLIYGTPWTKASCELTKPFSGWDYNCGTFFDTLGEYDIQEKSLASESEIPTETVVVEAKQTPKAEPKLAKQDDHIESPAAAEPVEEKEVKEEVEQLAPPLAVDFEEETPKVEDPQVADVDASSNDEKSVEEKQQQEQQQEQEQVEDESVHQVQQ

Candida albicans = experiment: In vitro inhibition of Candida albicans G418-sensitive proliferation; type: functional, organism-based

SMILES	pIC50 [1]	pIC50 (Candida albicans)
O=C(O)CN1C(=O)/C(=C/c2ccc(OCc3ccccc3)c(OCc3ccccc3)c2)SC1=S	5.64	5.52
O=C(O)CN1C(=O)/C(=C/c2ccc(OCc3ccccc3)c(OCc3cccc(Cl)c3)c2)SC1=S	5.40	5.40
O=C(O)CN1C(=O)/C(=C/c2ccc(OCCCc3ccccc3)c(OCc3ccccc3)c2)SC1=S	5.85	5.62
O=C(O)CN1C(=O)/C(=C/c2ccc(OCc3ccc(F)cc3F)c(OCc3ccc(F)cc3F)c2)SC1=S	5.30	< 4.00
C[C@H](COc1ccc(/C=C2\SC(=S)N(CC(=O)O)C2=O)cc1O[C@@H](c1ccccc1)C(F)(F)F)c1ccccc1	5.46	6.26
CCCN(CCC)C(=O)C(Oc1cc(/C=C2\SC(=S)N(CC(=O)O)C2=O)ccc1OCCc1ccccc1)c1ccccc1 (centres undefined)	6.10	7.30
CC(Oc1cc(/C=C2\SC(=S)N(CC(=O)O)C2=O)ccc1OCCc1ccccc1)c1ccccc1 (centres undefined)	6.70	7.70
C[C@@H](COc1ccc(/C=C2\SC(=S)N(CC(=O)O)C2=O)cc1O[C@H](c1ccccc1)C(F)(F)F)c1ccccc1	6.40	8.00
CC[C@H](COc1ccc(/C=C2\SC(=S)N(CC(=O)O)C2=O)cc1O[C@H](c1ccccc1)C(F)(F)F)c1ccccc1	6.30	7.70
O=C(O)CN1C(=O)/C(=C/c2ccc(OCCc3ccc(Cl)cc3)c(OCc3ccccc3)c2)SC1=S	5.80	7.30
O=C(O)CN1C(=O)/C(=C/c2ccc(OCc3ccccc3)c(OCc3cccnc3)c2)SC1=S	4.37	< 4.00
O=C(O)CN1C(=O)/C(=C/c2cccc(OCc3ccccc3)c2)SC1=S	4.30	
C[C@H](Oc1cc(/C=C2\SC(=S)N(CC(=O)O)C2=O)ccc1OC[C@H](C)c1ccccc1)c1ccccc1	6.30	8.70
O=C(O)CN1C(=O)/C(=C/c2ccc(OCCc3ccc(OC(F)(F)F)cc3)c(OCc3ccccc3)c2)SC1=S	5.89	6.70
O=C(O)CN1C(=O)/C(=C/c2ccc(OCc3ccccc3)c(OCc3cccc(C(F)(F)F)c3)c2)SC1=S	4.96	< 4.00
O=C(O)CN1C(=O)/C(=C/c2ccc(OCc3ccccc3)cc2)SC1=S	4.26	4.30
COc1cccc(COc2ccc(/C=C3\SC(=S)N(CC(=O)O)C3=O)cc2OCc2cccc(OC)c2)c1	4.82	< 4.00

SMILES	pIC50 [1]	pIC50 (Candida albicans)
O=C(O)CN1C(=O)/C(=C/c2ccc(OCCc3ccccc3)c(OC(C(=O)N3CCOCC3)c3ccccc3)c2)SC1=S (centres undefined)	6.00	4.37
C[C@@H](COc1ccc(/C=C2\SC(=S)N(CC(=O)O)C2=O)cc1O[C@@H](c1ccccc1)C(F)(F)F)c1ccccc1	5.74	6.70
O=C(O)CN1C(=O)/C(=C/c2ccc(OCCc3ccccc3)c(OC(CO)c3ccccc3)c2)SC1=S (centres undefined)	6.77	6.52
COc1cccc(COc2cc(/C=C3\SC(=S)N(CC(=O)O)C3=O)ccc2OCc2ccccc2)c1	5.12	< 4.00
CC[C@@H](COc1ccc(/C=C2\SC(=S)N(CC(=O)O)C2=O)cc1O[C@H](c1ccccc1)C(F)(F)F)c1ccccc1	6.46	7.70
C[C@@H](COc1ccc(/C=C2\SC(=S)N(CC(=O)O)C2=O)cc1OCc1ccccc1)c1ccccc1	5.74	7.15
O=C(O)CN1C(=O)/C(=C/c2ccc(OCCc3ccc(C(F)(F)F)cc3)c(OCc3ccccc3)c2)SC1=S	5.40	6.74
NC(=O)C(Oc1cc(/C=C2\SC(=S)N(CC(=O)O)C2=O)ccc1OCCc1ccccc1)c1ccccc1 (centres undefined)	6.46	5.15
CCC(Oc1cc(/C=C2\SC(=S)N(CC(=O)O)C2=O)ccc1OCCc1ccccc1)c1ccccc1 (centres undefined)	6.02	7.70
C[C@H](COc1ccc(/C=C2\SC(=S)N(CC(=O)O)C2=O)cc1O[C@H](c1ccccc1)C(F)(F)F)c1ccccc1	6.22	7.70
C[C@H](COc1ccc(/C=C2\SC(=S)N(CC(=O)O)C2=O)cc1OCc1ccccc1)c1ccccc1	5.02	6.46
O=C(O)CN1C(=O)/C(=C/c2ccc(OCCc3ccccc3)c(OCc3ccccc3)c2)SC1=S	5.82	6.30
CC(C)C(Oc1cc(/C=C2\SC(=S)N(CC(=O)O)C2=O)ccc1OCCc1ccccc1)c1ccccc1 (centres undefined)	6.15	7.52
C[C@@H](COc1ccc(/C=C2\SC(=S)N(CC(=O)O)C2=O)cc1O[C@H](C)c1ccccc1)c1ccccc1	5.74	7.52
O=C(O)CN1C(=O)/C(=C/c2ccc(OCc3c(F)cccc3F)c(OCc3c(F)cccc3F)c2)SC1=S	4.70	< 4.00
O=C(O)CN1C(=O)/C(=C/c2ccc(OCc3cccc(C(F)(F)F)c3)c(OCc3ccccc3)c2)SC1=S		6.19

Further lines, with some results ahead:

pIC50 [1]	SMILES	pIC50 (Candida albicans)
4.70	CS(=O)(=O)c1ccc(COc2cc(/C=C3\SC(=S)N(CC(=O)O)C3=O)ccc2OCc2ccccc2)cc1	< 4.00
4.96	O=C(O)CN1C(=O)/C(=C/c2ccc(OCc3ccccc3)c(OCc3ccc(C(F)(F)F)cc3)c2)SC1=S	< 4.00
5.19	O=C(O)CN1C(=O)/C(=C/c2ccc(OCc3ccc(F)cc3F)c(OCc3ccccc3)c2)SC1=S	5.68
5.70	O=C(O)CN1C(=O)/C(=C\c2ccc(OCc3ccccc3)c(OCc3ccc(OC(F)(F)F)cc3)c2)SC1=S	6.30
5.57	Cc1ccc(COc2ccc(/C=C3\SC(=S)N(CC(=O)O)C3=O)cc2OCc2ccccc2)cc1	6.22
5.47	COc1ccc(COc2ccc(/C=C3\SC(=S)N(CC(=O)O)C3=O)cc2OCc2ccccc2)cc1	5.52
5.72	O=C(O)CN1C(=O)/C(=C/c2ccc(OCc3ccc(C(F)(F)F)cc3)c(OCc3ccccc3)c2)SC1=S	5.40
6.07	O=C(O)CN1C(=O)/C(=C/c2ccc(OCCc3cc(F)cc(F)c3)c(OCc3ccccc3)c2)SC1=S	6.96
5.30	O=C(O)CN1C(=O)/C(=C/c2ccc(OCc3ccc(F)cc3)c(OCc3ccc(F)cc3)c2)SC1=S	5.28
5.07	O=C(O)CN1C(=O)/C(=C/c2ccc(OCc3ccccc3)c(OCc3ccc(F)cc3F)c2)SC1=S	5.22
5.40	O=C(O)CN1C(=O)/C(=C/c2ccc(OCCc3ccc(F)cc3F)c(OCc3ccccc3)c2)SC1=S	7.30
5.70	O=C(O)CN1C(=O)/C(=C/c2ccc(OCc3ccc(F)c(F)c3)c(OCc3ccccc3)c2)SC1=S	5.82
5.49	CS(=O)(=O)c1ccc(COc2ccc(/C=C3\SC(=S)N(CC(=O)O)C3=O)cc2OCc2ccccc2)cc1	< 4.00
4.52	O=C(O)CN1C(=O)/C(=C/c2ccc(OCc3ccccc3)c(OCc3ccncc3)c2)SC1=S	< 4.00
5.15	O=C(O)CN1C(=O)/C(=C/c2ccc(OCc3ccccc3)c(OCc3ccc(Cl)cc3)c2)SC1=S	
6.02	O=C(O)CN1C(=O)/C(=C/c2ccc(OCc3ccc(Cl)cc3)c(OCc3ccccc3)c2)SC1=S	6.22
5.92	O=C(O)CN1C(=O)/C(=C/c2ccc(OCCc3ccc(F)cc3)c(OCc3ccccc3)c2)SC1=S	7.30
5.38	O=C(O)CN1C(=O)/C(=C/c2ccc(OCc3ccccc3)c(OCc3ccc(F)c(F)c3)c2)SC1=S	< 4.00
